In article PMC12592400, “A unique inhibitor conformation selectively targets the DNA polymerase PolC of Gram-positive priority pathogens” (Nature Communications, 2025):
Values after ≈ are worked out from the molar mass of the structure shown. Like-named read-outs stand apart in the source and are kept apart here.

How the values were obtained:
[1] = test system: Enterococcus faecalis ATCC 29212; assay: Broth microdilution MIC; format: cell-based
Experimental: (§1) Minimal inhibitory concentrations (MICs) were determined by WuXi Apptec, on behalf of Acurx Pharmaceuticals, Inc., for the Gram-positive pathogens: Enterococcus faecium ATCC 700221 (VRE; vancomycin-resistant), Enterococcus faecalis ATCC 29212, Staphylococcus aureus NRS384 (MRSA; methicillin-resistant), Staphylococcus aureus ATCC 29213 (MSSA; methicillin-sensitive), and Streptococcus pneumoniae ATCC 49619 (PRSP; penicillin-resistant). As a control, Gram-negative Escherichia coli ATCC 25922 was included. All strains were obtained from ATCC with the exception of Staphylococcus aureus NRS384, which was obtained from NARSA (Network on Antimicrobial Resistance in Staphylococcus aureus, now part of BEI resources). Bacteria were cultured according to the manuals provided by the suppliers and stored in 25% glycerol (final concentration) at –80 °C.
(§2) Bacterial strains were streaked out onto MHA plates (Mueller-Hinton II Agar; BD-211438) and incubated at 37 °C for 20 h except for S. pneumoniae and Enterococci, which were streaked on blood agar (Huankai-24070). S. pneumoniae was incubated in 5% CO2. Single colonies were suspended in 5 mL sterile saline, the turbidity was adjusted to 0.20 (Siemens MicroScan turbidity metre; equal to ~1.0 × 10^8 colony forming units (CFU)/mL) and then diluted 200x in MHIIB (Mueller-Hinton II […] (BD-211438)) medium. The MHIIB media was supplemented with 5% Lysed Horse Blood (Shanghai YuanMu Biological Technology Co. Ltd. YM-U161) for S. pneumoniae.
(§3) ACX compounds were dissolved in pure DMSO (Sigma 276855) to a concentration of 20 mg/mL. From this, twofold serial dilutions (from […]) in DMSO were transferred to a 96-well source-plate (Axygen-wipp02280) with pure DMSO as a control. 2 µL from the source plate was then transferred into 96-well culture plates (Costar 3788) and inoculated with 198 µL of the bacterial suspension so that each well contained ~5.0 × 10^5 CFU/mL bacteria, 1% DMSO and serially diluted compounds at 0 µg/mL and 0.0625-64 µg/mL in 100 µl medium. For NRS384, which was tested in a separate experiment, 99 µL of bacterial suspension was added to 1 µL of compound. The plates were incubated in ambient atmosphere at 37 °C for 20 h.

[2] = test system: Enterococcus faecium ATCC 700221 (VRE; vancomycin-resistant); assay: Broth microdilution MIC; format: cell-based; conditions: for MIC: Enterococcus faecium, read-out: Measured MIC; for Measured MIC: Table 2, polC WT, strain ATCC 700221
Experimental: as §1, §2, §3

[3] = test system: Escherichia coli ATCC 25922; assay: Broth microdilution MIC; format: cell-based
Experimental: as §1, §2, §3

[4] = test system: Staphylococcus aureus ATCC 29213 (MSSA; methicillin-sensitive); assay: Broth microdilution MIC; format: cell-based; conditions: read-out: Measured MIC
Experimental: as §1, §2, §3

[5] = test system: Streptococcus pneumoniae ATCC 49619 (PRSP; penicillin-resistant); assay: Broth microdilution MIC; format: cell-based; conditions: read-out: Measured MIC
Experimental: as §1, §2, §3

[6] = test system: E. faecium strains with polC mutations (A1281T, F1276I, F1276L, F1276S); assay: Cross-resistance MIC of reduced susceptible E. faecium strains; format: cell-based, Enterococcus faecium; conditions: for MIC: Enterococcus faecium
Experimental: Strains with reduced susceptibility to ACX compounds were generated by WuXi Apptec on behalf of Acurx Pharmaceuticals, Inc., using E. faecium ATCC 700221 as parental strain.
Agar MICs for the wild-type strain were determined on Blood agar (Huankai). Compounds and linezolid were dissolved in 100% DMSO and vancomycin in ultrapure water. Strains were inoculated onto agar plates, incubated at 37 °C for 20-24 h after which colonies were suspended in sterile 0.9% saline at different bacterial concentrations. 5 μL of bacterial suspensions was individually spotted on agar plates supplemented with compounds at different concentrations, resulting in final concentrations of 10^–1, 10^–2, 10^–3, 10^–4, 10^–5, 10^–6, and 10^–7 per spot. After incubation for 20-24 h, bacterial growth was assessed by visual inspection.
For frequency of resistance (FOR) studies, colonies from the agar plate were suspended into sterile 0.9% saline to get 10^8-10^9 CFU bacterial cells per mL. […] The suspensions were also serially diluted with 0.9% saline and spotted onto agar to determine the actual inoculum. All agar plates were incubated at 37 °C for 48 h. FOR was defined as colony number on each compound-containing plate per CFU number of actual inoculum. Resistant colonies were subcultured on the corresponding compound plates to confirm that colonies were resistant and stable.
Confirmed resistant colonies were used for cross-resistance studies, as described above.
Paired-end short read sequencing data from selected mutants (generated by BGISEQ) as well as the corresponding wild-type parental strain was analysed against the reference genomes for E. faecium strain ATCC 700221 (https://genomes.atcc.org/genomes/f9d13a716ccb4f78) using Geneious R10.2.6 (Biomatters Ltd). Variants were called using the Find Variants/SNPs function with a minimum coverage of 10 and a minimum frequency of 0.8. […] This identified the following mutations in the polC gene: D1103Y in strain Efa4; F1276L in strains Efa030, Efa038, and Efa039; F1276I in strains Efa1 and Efa037; F1276S in strain Efa3; A1281T in strains Efa036, Efa040 and Efa041. Strains Efa036, Efa039, and Efa040 each had only one polymorphism identified.

[7] = test system: Staphylococcus aureus NRS384 (MRSA; methicillin-resistant); assay: Broth microdilution MIC; format: cell-based; conditions: read-out: Measured MIC
Experimental: as §1, §2, §3

[8] = read-out: Measured MIC, polC A1281T, strain Efa036, selected on 2 mg/L ACX-641
[9] = read-out: Measured MIC, polC A1281T, strain Efa040, selected on 4 mg/L ACX-671
[10] = read-out: Measured MIC, polC F1276I, strain Efa037, selected on 4 mg/L ACX-641
[11] = read-out: Measured MIC, polC F1276L, strain Efa030, selected on 16 mg/L ACX-728
[12] = read-out: Measured MIC, polC F1276S, strain Efa3, selected on 16 mg/L ACX-728
[13] = ATCC29212, read-out: Measured MIC
[14] = ATCC25922, read-out: Measured MIC

Row | Structure (SMILES) | Measured MIC [2] | MIC [6, 8] | MIC [6, 9] | MIC [6, 10] | MIC [6, 11] | MIC [6, 12] | MIC [1, 13] | MIC [2] | MIC [3, 14] | MIC [4] | MIC [5] | further results
1 | CN(C)c1cc(CNCC(C)(C)C)c(O)c2c1C[C@H]1C[C@H]3[C@H](N(C)C)C(O)=C(C(N)=O)C(=O)[C@@]3(O)C(O)=C1C2=O [OMC, omadacycline] | 0.12 µg/mL | 0.12 µg/mL | 0.12 µg/mL | ≤ 0.06 µg/mL | 0.12 µg/mL | ≤ 0.06 µg/mL |  |  |  |  |  | MIC ([1]; ATCC29212, E. faecalis ATCC 29212, Table 1, single replicate, read-out: Measured MIC): 0.25 µg/mL (≈ 0.449 µM); MIC ([2]; E. faecium VRE ATCC 700221, Table 1, single replicate): 0.12 µg/mL (≈ 0.216 µM); MIC ([3]; ATCC25922, E. coli ATCC 25922, Table 1, single replicate, read-out: Measured MIC): 1 µg/mL (≈ 1.8 µM); MIC ([4]; S. aureus ATCC 29213, Table 1, single replicate): 0.5 µg/mL (≈ 0.898 µM); MIC ([5]; S. pneumoniae PRSP ATCC 49619, Table 1, single replicate): ≤ 0.06 µg/mL
2 | CN[C@H](CC(C)C)C(=O)N[C@H]1C(=O)N[C@@H](CC(N)=O)C(=O)N[C@H]2C(=O)N[C@H]3C(=O)N[C@H](C(=O)N[C@H](C(=O)O)c4cc(O)cc(O)c4-c4cc3ccc4O)[C@H](O)c3ccc(c(Cl)c3)Oc3cc2cc(c3O[C@@H]2O[C@H](CO)[C@@H](O)[C@H](O)[C@H]2O[C@H]2C[C@](C)(N)[C@H](O)[C@H](C)O2)Oc2ccc(cc2Cl)[C@H]1O [VAN, vancomycin] | >64 µg/mL |  |  |  |  |  | 4 µg/mL (≈ 2.76 µM) | > 64 µg/mL | > 64 µg/mL | 1 µg/mL (≈ 0.69 µM) | 0.25 µg/mL (≈ 0.173 µM) | MIC [7]: 1 µg/mL (≈ 0.69 µM); MIC ([6]; read-out: Measured MIC): > 64 µg/mL; Measured MIC ([6]; polC A1281T, strain Efa036, selected on 2 mg/L ACX-641): >64 µg/mL; Measured MIC ([6]; polC F1276I, strain Efa037, selected on 4 mg/L ACX-641): >64 µg/mL; Measured MIC ([6]; polC F1276L, strain Efa030, selected on 16 mg/L ACX-728): >64 µg/mL; Measured MIC ([6]; polC F1276S, strain Efa3, selected on 16 mg/L ACX-728): >64 µg/mL
3 | CCCCCCCCCC(=O)N[C@@H](Cc1c[nH]c2ccccc12)C(=O)N[C@H](CC(N)=O)C(=O)N[C@@H](CC(=O)O)C(=O)N[C@@H]1C(=O)NCC(=O)N[C@@H](CCCN)C(=O)N[C@@H](CC(=O)O)C(=O)N[C@H](C)C(=O)N[C@@H](CC(=O)O)C(=O)NCC(=O)N[C@H](CO)C(=O)N[C@@H]([C@H](C)CC(=O)O)C(=O)N[C@@H](CC(=O)c2ccccc2N)C(=O)O[C@@H]1C [DAP, daptomycin] | 4 µg/mL | 4 µg/mL | 4 µg/mL | 2 µg/mL | 2 µg/mL | 2 µg/mL | 8 µg/mL (≈ 4.94 µM) | 4 µg/mL (≈ 2.47 µM) | > 64 µg/mL | 1 µg/mL (≈ 0.617 µM) | 0.5 µg/mL (≈ 0.309 µM) | 
